Columns and labels:
TDO (A172 cells) = molecular target: T1, TDO (A172 cells) (Homo sapiens, UniProt P48775); assay: TDO cell-based assay (A172), kynurenine production; conditions: A172 human glioblastoma cells, 500 μM L-Trp, 48 h, kynurenine by absorbance at 490 nm
T1 construct: This assay utilised cancer cells which expressed either TDO or IDO; host or cells: A172 human glioblastoma cells
Method in brief: (§1)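 Kynurenine output was read at 490 nm after 5 min with 1% Ehrlich's reagent, using supernatants from 48 h, 37 °C cultures containing 500 μM L-Trp and test compound. TDO activity came from A172 cells. IDO activity came from SKOV-3 cells, whose expression was induced by adding 500 ng/ml IFNγ.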

IDO (SKOV-3 cells) = molecular target: T2, IDO (SKOV-3 cells) (Homo sapiens, UniProt P14902); assay: IDO cell-based assay (SKOV-3, IFNγ-induced), kynurenine production; conditions: SKOV-3 ovary adenocarcinoma cells, IFNγ 500 ng/ml, 500 μM L-Trp, 48 h, kynurenine by absorbance at 490 nm
T2 construct: This assay utilised cancer cells which expressed either TDO or IDO; host or cells: SKOV-3 ovary adenocarcinoma cells, IFNγ-induced
Method in brief: as §1

T2 sequence (P14902 whole entry): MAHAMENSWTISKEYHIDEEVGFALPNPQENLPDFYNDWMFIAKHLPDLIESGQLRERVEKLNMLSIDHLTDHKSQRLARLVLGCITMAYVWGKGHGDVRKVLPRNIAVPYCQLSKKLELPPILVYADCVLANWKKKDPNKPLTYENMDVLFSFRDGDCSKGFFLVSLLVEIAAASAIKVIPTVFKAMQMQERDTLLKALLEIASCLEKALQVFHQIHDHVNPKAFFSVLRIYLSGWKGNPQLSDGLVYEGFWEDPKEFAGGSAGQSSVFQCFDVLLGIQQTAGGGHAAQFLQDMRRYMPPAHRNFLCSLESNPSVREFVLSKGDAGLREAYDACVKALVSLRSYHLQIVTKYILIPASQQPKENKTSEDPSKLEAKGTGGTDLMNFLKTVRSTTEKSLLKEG
T1 sequence (P48775 whole entry): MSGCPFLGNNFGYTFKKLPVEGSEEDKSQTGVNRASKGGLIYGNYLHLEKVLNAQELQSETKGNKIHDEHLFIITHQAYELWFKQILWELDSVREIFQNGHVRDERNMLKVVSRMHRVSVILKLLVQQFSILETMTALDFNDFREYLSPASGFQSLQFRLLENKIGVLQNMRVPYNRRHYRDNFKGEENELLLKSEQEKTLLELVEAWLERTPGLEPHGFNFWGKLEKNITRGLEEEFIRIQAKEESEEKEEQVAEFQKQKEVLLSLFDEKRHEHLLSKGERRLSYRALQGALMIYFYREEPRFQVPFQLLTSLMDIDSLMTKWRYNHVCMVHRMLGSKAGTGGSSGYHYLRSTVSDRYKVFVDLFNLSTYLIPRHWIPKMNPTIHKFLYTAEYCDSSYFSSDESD

Row | SMILES | TDO cellular assay (A172) pIC50 (TDO (A172 cells)) | IDO cellular assay (SKOV3) pIC50 (IDO (SKOV-3 cells)) | IC50 (TDO (A172 cells); read-out: TDO cellular assay (A172) pIC50 (converted)) [µM] | IC50 (IDO (SKOV-3 cells); read-out: IDO cellular assay (SKOV3) pIC50 (converted)) [µM]
1 | N#Cc1ccc2[nH]c(C(=O)NC3(c4ccc(F)cc4)CC3)cc2c1 [Compound 137] | − (− = pIC50 <4.50) | +++ (+++ = pIC50 ≥5.50) | – | –
2 | O=C(NC1(c2ccc(F)cc2)CC1)c1cc2cc(Cl)ccc2[nH]1 [Compound 138] | − (− = pIC50 <4.50) | +++ (+++ = pIC50 ≥5.50) | – | –
3 | CC1(NC(=O)c2cc3cc(Cl)ccc3[nH]2)CC1 [Compound 139] | − (− = pIC50 <4.50) | + (+ = pIC50 4.50-<5.00) | – | –
4 | Cn1cc(C2(NC(=O)c3cc4cc(Cl)ccc4[nH]3)CC2)cn1 [Compound 141] | – | – | > 31.6 | ≤ 3.16
5 | O=C(NC1(C2CCOCC2)CC1)c1cc2cc(Cl)ccc2[nH]1 [Compound 144] | + (+ = pIC50 4.50-<5.00) | +++ (+++ = pIC50 ≥5.50) | – | –
6 | Cn1cc(C2(NC(=O)c3cc4cc(C#N)ccc4[nH]3)CC2)cn1 [Compound 145] | − (− = pIC50 <4.50) | +++ (+++ = pIC50 ≥5.50) | – | –
7 | CC(=O)N1CC(C(C)NC(=O)c2cc3cc(Cl)ccc3[nH]2)C1 (stereo not shown) [Compound 147] | − (− = pIC50 <4.50) | +++ (+++ = pIC50 ≥5.50) | – | –
8 | O=C(NC1(c2ccc(Cl)cc2)CC1)c1cc2cc(Cl)ccc2[nH]1 [Compound 148] | + (+ = pIC50 4.50-<5.00) | +++ (+++ = pIC50 ≥5.50) | – | –
9 | CC(NC(=O)c1cc2cc(Cl)ccc2[nH]1)C1CN(S(C)(=O)=O)C1 (stereo not shown) [Compound 152] | − (− = pIC50 <4.50) | ++ (++ = pIC50 5.00-<5.50) | – | –
10 | O=C(NC1(c2cccnc2)CC1)c1cc2cc(Cl)ccc2[nH]1 [Compound 153] | − (− = pIC50 <4.50) | +++ (+++ = pIC50 ≥5.50) | – | –
11 | CC(CN(C)S(C)(=O)=O)NC(=O)c1cc2cc(Cl)ccc2[nH]1 (stereo not shown) [Compound 154] | − (− = pIC50 <4.50) | + (+ = pIC50 4.50-<5.00) | – | –
12 | CC(=O)N1CCC(C2(NC(=O)c3cc4cc(Cl)ccc4[nH]3)CC2)CC1 [Compound 160] | − (− = pIC50 <4.50) | +++ (+++ = pIC50 ≥5.50) | – | –
13 | CS(=O)(=O)N1CCC(C2(NC(=O)c3cc4cc(Cl)ccc4[nH]3)CC2)CC1 [Compound 161] | − (− = pIC50 <4.50) | +++ (+++ = pIC50 ≥5.50) | – | –
14 | O=C(NC1(c2ccccc2)CC1)c1cc2cc(Cl)cnc2[nH]1 [Compound 164] | − (− = pIC50 <4.50) | +++ (+++ = pIC50 ≥5.50) | – | –
15 | CC(NC(=O)c1cc2cc(Cl)cnc2[nH]1)c1cnn(C)c1 (stereo not shown) [Compound 165] | − (− = pIC50 <4.50) | + (+ = pIC50 4.50-<5.00) | – | –
16 | COc1ccc2cc(C(=O)NC3(c4cnn(C)c4)CC3)[nH]c2c1 [Compound 167] | − (− = pIC50 <4.50) | ++ (++ = pIC50 5.00-<5.50) | – | –
17 | Cn1cc(C2(NC(=O)c3cc4cc(C(F)(F)F)ccc4[nH]3)CC2)cn1 [Compound 168] | + (+ = pIC50 4.50-<5.00) | +++ (+++ = pIC50 ≥5.50) | – | –
18 | O=C(NC1(c2ccccc2)COC1)c1cc2cc(Cl)cnc2[nH]1 [Compound 171] | − (− = pIC50 <4.50) | +++ (+++ = pIC50 ≥5.50) | – | –
19 | Cn1cc(C2(NC(=O)c3cc4cc(Cl)cnc4[nH]3)CC2)cn1 [Compound 177] | − (− = pIC50 <4.50) | ++ (++ = pIC50 5.00-<5.50) | – | –
20 | O=C(NC1(c2ncccn2)CC1)c1cc2cc(Cl)ccc2[nH]1 [Compound 179] | − (− = pIC50 <4.50) | ++ (++ = pIC50 5.00-<5.50) | – | –

Next, values leading:

Row | TDO cellular assay (A172) pIC50 (TDO (A172 cells)) | IDO cellular assay (SKOV3) pIC50 (IDO (SKOV-3 cells)) | IC50 (TDO (A172 cells); read-out: TDO cellular assay (A172) pIC50 (converted)) [µM] | IC50 (IDO (SKOV-3 cells); read-out: IDO cellular assay (SKOV3) pIC50 (converted)) [µM] | SMILES
21 | − (− = pIC50 <4.50) | +++ (+++ = pIC50 ≥5.50) | – | – | CC(NC(=O)c1cc2cc(Cl)ccc2[nH]1)c1cnn(C)c1 (stereo not shown) [Compound 133]
22 | − (− = pIC50 <4.50) | +++ (+++ = pIC50 ≥5.50) | – | – | CC(NC(=O)c1cc2cc(Cl)ccc2[nH]1)c1noc(-c2ccccc2)n1 (stereo not shown) [Compound 134]
23 | − (− = pIC50 <4.50) | +++ (+++ = pIC50 ≥5.50) | – | – | CC(NC(=O)c1cc2cc(Cl)ccc2[nH]1)c1cnn(C(C)C)c1 (stereo not shown) [Compound 135]
24 | − (− = pIC50 <4.50) | +++ (+++ = pIC50 ≥5.50) | – | – | N#Cc1ccc2[nH]c(C(=O)NC3(c4ccccc4)CC3)cc2c1 [Compound 136]
25 | − (− = pIC50 <4.50) | +++ (+++ = pIC50 ≥5.50) | – | – | O=C(NC1(c2nc(-c3ccccc3)no2)CC1)c1cc2cc(Cl)ccc2[nH]1 [Compound 140]
26 | + (+ = pIC50 4.50-<5.00) | +++ (+++ = pIC50 ≥5.50) | – | – | O=C(NC1(c2ccccc2)COC1)c1cc2cc(Cl)ccc2[nH]1 [Compound 142]
27 | + (+ = pIC50 4.50-<5.00) | +++ (+++ = pIC50 ≥5.50) | – | – | O=C(NC1(c2ccn(-c3ccccc3)n2)CC1)c1cc2cc(Cl)ccc2[nH]1 [Compound 143]
28 | − (− = pIC50 <4.50) | +++ (+++ = pIC50 ≥5.50) | – | – | COc1ccc(-n2cc(C(C)NC(=O)c3cc4cc(Cl)ccc4[nH]3)cn2)cc1 (stereo not shown) [Compound 146]
29 | ++ (++ = pIC50 5.00-<5.50) | +++ (+++ = pIC50 ≥5.50) | – | – | COc1ccc(C2(NC(=O)c3cc4cc(Cl)ccc4[nH]3)CC2)cc1 [Compound 150]
30 | − (− = pIC50 <4.50) | +++ (+++ = pIC50 ≥5.50) | – | – | O=C(NC1(c2cnn(-c3ccccc3)c2)CC1)c1cc2cc(Cl)ccc2[nH]1 [Compound 151]
31 | − (− = pIC50 <4.50) | +++ (+++ = pIC50 ≥5.50) | – | – | O=C(NC1(c2ccccn2)CC1)c1cc2cc(Cl)ccc2[nH]1 [Compound 155]
32 | − (− = pIC50 <4.50) | +++ (+++ = pIC50 ≥5.50) | – | – | O=C(NC1(c2ccccc2)CC1)c1cc2cc(C(F)(F)F)ccc2[nH]1 [Compound 156]
33 | − (− = pIC50 <4.50) | ++ (++ = pIC50 5.00-<5.50) | – | – | CC(NC(=O)c1cc2cc(C(F)(F)F)ccc2[nH]1)c1cnn(C)c1 (stereo not shown) [Compound 157]
34 | − (− = pIC50 <4.50) | +++ (+++ = pIC50 ≥5.50) | – | – | C[C@@H](NC(=O)c1cc2cc(C(F)(F)F)ccc2[nH]1)c1ccccc1 [Compound 158]
35 | − (− = pIC50 <4.50) | ++ (++ = pIC50 5.00-<5.50) | – | – | COc1ccc2cc(C(=O)N[C@H](C)c3ccccc3)[nH]c2c1 [Compound 159]
36 | − (− = pIC50 <4.50) | ++ (++ = pIC50 5.00-<5.50) | – | – | COc1ccc2cc(C(=O)NC3(c4ccccc4)CC3)[nH]c2c1 [Compound 162]
37 | − (− = pIC50 <4.50) | + (+ = pIC50 4.50-<5.00) | – | – | C[C@@H](NC(=O)c1cc2cc(Cl)cnc2[nH]1)c1ccccc1 [Compound 163]
38 | − (− = pIC50 <4.50) | + (+ = pIC50 4.50-<5.00) | – | – | COc1ccc2cc(C(=O)NC(C)c3cnn(C)c3)[nH]c2c1 (stereo not shown) [Compound 166]
39 | − (− = pIC50 <4.50) | ++ (++ = pIC50 5.00-<5.50) | – | – | COc1ccc2cc(C(=O)NC3(c4ccccc4)COC3)[nH]c2c1 [Compound 169]
40 | + (+ = pIC50 4.50-<5.00) | +++ (+++ = pIC50 ≥5.50) | – | – | O=C(NC1(c2ccccc2)COC1)c1cc2cc(C(F)(F)F)ccc2[nH]1 [Compound 170]
41 | − (− = pIC50 <4.50) | + (+ = pIC50 4.50-<5.00) | – | – | O=C(NC1(c2ccccc2)CC1)c1cc2ccc(O)cc2[nH]1 [Compound 172]
42 | − (− = pIC50 <4.50) | +++ (+++ = pIC50 ≥5.50) | – | – | CC(NC(=O)c1cc2cc(Cl)ccc2[nH]1)c1ccn(-c2ccccc2)n1 (stereo not shown) [Compound 173]
43 | ++ (++ = pIC50 5.00-<5.50) | +++ (+++ = pIC50 ≥5.50) | – | – | C[C@@H](NC(=O)c1cc2cc(Cl)cc(F)c2[nH]1)c1ccccc1 [Compound 174]
44 | − (− = pIC50 <4.50) | +++ (+++ = pIC50 ≥5.50) | – | – | COc1ccc2[nH]c(C(=O)N[C@H](C)c3ccccc3)cc2c1 [Compound 175]
45 | − (− = pIC50 <4.50) | +++ (+++ = pIC50 ≥5.50) | – | – | COc1ccc2[nH]c(C(=O)NC3(c4cnn(C)c4)CC3)cc2c1 [Compound 176]
46 | − (− = pIC50 <4.50) | +++ (+++ = pIC50 ≥5.50) | – | – | COc1ccc2[nH]c(C(=O)NC3(c4ccccc4)COC3)cc2c1 [Compound 178]
47 | − (− = pIC50 <4.50) | + (+ = pIC50 4.50-<5.00) | – | – | C[C@@H](NC(=O)c1cc2ccc(C(F)F)cc2[nH]1)c1ccccc1 [Compound 180]
